The target in the experiment is T1, human GPR39 receptor (Homo sapiens, UniProt O43194).
T1 construct: PC3 Cells, Expressing the Endogenous Human GPR39 Receptor; endogenous in cells; host or cells: PC3 (human prostate adenocarcinoma) cells
T1 sequence (O43194 1-453): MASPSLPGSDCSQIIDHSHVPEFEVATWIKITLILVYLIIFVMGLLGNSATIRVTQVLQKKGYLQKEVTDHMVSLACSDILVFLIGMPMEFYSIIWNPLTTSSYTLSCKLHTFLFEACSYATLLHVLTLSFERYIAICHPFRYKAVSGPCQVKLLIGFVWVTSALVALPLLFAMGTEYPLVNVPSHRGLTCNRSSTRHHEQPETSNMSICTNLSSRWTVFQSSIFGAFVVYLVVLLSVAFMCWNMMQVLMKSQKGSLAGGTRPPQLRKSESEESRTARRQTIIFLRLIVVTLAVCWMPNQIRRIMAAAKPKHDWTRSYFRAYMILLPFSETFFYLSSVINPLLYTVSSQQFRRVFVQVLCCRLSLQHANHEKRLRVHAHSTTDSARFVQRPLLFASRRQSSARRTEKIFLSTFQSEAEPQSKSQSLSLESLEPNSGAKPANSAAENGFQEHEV
The experiment is described as follows: Intracellular calcium response (FLIPR, Calcium-6) in PC3 cells, antagonism of agonist C3 (TC-G 1008) at EC90. Format: cell-based. Particulars: functional pKi (-Log10Ki) by modified Cheng-Prusoff from IC50, PC3 cells endogenously expressing human GPR39, 30 μM ZnCl2, agonist C3 (TC-G 1008) at EC90 1.5 μM; for Ki: read-out: fpKi activity. In a few lines:
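Calcium-6-loaded cells in HEPES buffer pH 7.4 were given compound with 30 μM final ZnCl2 (0.32% DMSO) for 10 min, then challenged with 1.5 μM C3. Baseline-subtracted peak fluorescence expressed as % inhibition of the C3 response; IC50 from four-parameter logistic fit, reported as binned fpKi.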

The source of these data is US20250333405A1, “ANTAGONISTS OF GPR39 PROTEIN” (VASOCARDEA, INC., priority 2024, published 2025).

Where only a bound is given, the exact number is not on record here.

As for `Cc1nnc(-c2ccc(C(=O)N3CCC(C(F)(F)F)CC3)c(-c3cccc(C4CC4)n3)c2)[nH]1` [Example 71, [2-(6-cyclopropylpyridin-2-yl)-4-(5-methyl-4H-1,2,4-triazol-3-yl)phenyl]-[4-(trifluoromethyl)piperidin-1-yl]methanone], the Ki is not above 50.1 nM.

With `Cc1nnc(-c2ccc(C(=O)N3CCC(C(F)(F)F)CC3)c(-c3nc(C(F)(F)F)cs3)c2)[nH]1` [Example 72, [4-(5-methyl-4H-1,2,4-triazol-3-yl)-2-[4-(trifluoromethyl)-1,3-thiazol-2-yl]phenyl]-[4-(trifluoromethyl)piperidin-1-yl]methanone], the Ki is not above 50.1 nM.

With `Cc1nnc(-c2ccc(C(=O)N3CCC(C(F)(F)F)CC3)c(-c3cccc(C(F)(F)F)n3)c2)[nH]1` [Example 73, [4-(5-methyl-4H-1,2,4-triazol-3-yl)-2-[6-(trifluoromethyl)pyridin-2-yl]phenyl]-[4-(trifluoromethyl)piperidin-1-yl]methanone], the Ki is not above 50.1 nM.

For the compound `Cc1nnc(-c2ccc(C(=O)N3CCC(F)(F)CC3)c(-c3cccc(C(C)C)n3)c2)[nH]1` [Example 74], the Ki is not above 50.1 nM.

On to `Cc1nnc(-c2ccc(C(=O)N3CCC(F)(F)CC3)c(-c3cccc(C(F)(F)F)n3)c2)[nH]1` [Example 75, (4,4-difluoropiperidin-1-yl)-[4-(5-methyl-4H-1,2,4-triazol-3-yl)-2-[6-(trifluoromethyl)pyridin-2-yl]phenyl]methanone], for which the Ki was not above 50.1 nM.

For `Cc1nnc(-c2ccc(C(=O)N3CCC(F)(F)CC3)c(-c3nc(C(F)(F)F)cs3)c2)[nH]1` [Example 76, (4,4-difluoro-1-piperidyl)-[4-(5-methyl-4H-1,2,4-triazol-3-yl)-2-[4-(trifluoromethyl)thiazol-2-yl]phenyl]methanone], the Ki is not above 50.1 nM.

Regarding `Cc1nnc(-c2ccc(C(=O)N3CCC(F)(F)CC3)c(-c3nccc(C(F)(F)F)n3)c2)[nH]1` [Example 77, (4,4-difluoro-1-piperidyl)-[4-(5-methyl-4H-1,2,4-triazol-3-yl)-2-[4-(trifluoromethyl)pyrimidin-2-yl]phenyl]methanone], the Ki is not above 50.1 nM.

Take `Cc1nnc(-c2ccc(C(=O)N3CCC(F)(F)CC3)c(-c3cccc(C4CC4)n3)c2)[nH]1` [Example 78, [2-(6-cyclopropyl-2-pyridyl)-4-(5-methyl-4H-1,2,4-triazol-3-yl)phenyl]-(4,4-difluoro-1-piperidyl)methanone]: the Ki is not above 50.1 nM.

On to `Cc1nnc(-c2ccc(C(=O)N3CCC(F)(F)CC3)c(-c3cccc(C(C)(C)C)n3)c2)[nH]1` [Example 79, [2-(6-tert-butyl-2-pyridyl)-4-(5-methyl-4H-1,2,4-triazol-3-yl)phenyl]-(4,4-difluoro-1-piperidyl)methanone], for which the Ki is not above 50.1 nM.

For the compound `Cc1nnc(-c2ccc(C(=O)N3CCC(OC(F)(F)F)CC3)c(-c3ccn(C(C)(C)C)n3)c2)[nH]1` [Example 80, [2-(1-tert-butylpyrazol-3-yl)-4-(5-methyl-4H-1,2,4-triazol-3-yl)phenyl]-[4-(trifluoromethoxy)-1-piperidyl]methanone], the Ki is not above 50.1 nM.

For `CCOC(=O)c1csc(-c2cc(C#N)ccc2C(=O)N2CCC(F)(F)CC2)n1` [Example 81, ethyl 2-[5-cyano-2-(4,4-difluoropiperidine-1-carbonyl)phenyl]thiazole-4-carboxylate], the Ki was in the range of 63.1 to 251 nM.

`CCOC(=O)c1csc(-c2cc(-c3nnc(C)[nH]3)ccc2C(=O)N2CCC(F)(F)CC2)n1` [Example 82, ethyl 2-[2-(4,4-difluoropiperidine-1-carbonyl)-5-(5-methyl-4H-1,2,4-triazol-3-yl)phenyl]thiazole-4-carboxylate]: the Ki lay within 1260 to 6310 nM.

Take `CC(C)n1ccc(-c2cc(-c3cc(C(F)(F)F)n[nH]3)ccc2C(=O)N2CCC(F)(F)CC2)n1` [Example 84, (4,4-difluoro-1-piperidyl)-[2-(1-isopropylpyrazol-3-yl)-4-[5-(trifluoromethyl)-1H-pyrazol-3-yl]phenyl]methanone]: the Ki was in the range of 316 to 1000 nM.

As to `CC(C)c1cc(-c2ccc(C(=O)N3CCC(F)(F)CC3)c(-c3ccn(C(C)C)n3)c2)[nH]n1` [Example 85, (4,4-difluoro-1-piperidyl)-[2-(1-isopropylpyrazol-3-yl)-4-(5-isopropyl-1H-pyrazol-3-yl)phenyl]methanone], the Ki is 1260 to 6310 nM.

Consider `Cc1cc(-c2ccc(C(=O)N3CCC(F)(F)CC3)c(-c3ccn(C(C)C)n3)c2)[nH]n1` [Example 86, (4,4-difluoro-1-piperidyl)-[2-(1-isopropylpyrazol-3-yl)-4-(5-methyl-1H-pyrazol-3-yl)phenyl]methanone], for which the Ki is not above 50.1 nM.

`Cc1cnc(-c2ccc(C(=O)N3CCC(F)(F)CC3)c(-c3ccn(C(C)C)n3)c2)[nH]1` [Example 87, (4,4-difluoro-1-piperidyl)-[2-(1-isopropylpyrazol-3-yl)-4-(5-methyl-1H-imidazol-2-yl)phenyl]methanone]: the Ki was 63.1 to 251 nM.

Regarding `O=C(Nc1ccc(C(=O)N2CCS(=O)(=O)CC2)c(C2=CCCC2)c1)C1CC1` [Example 88, N-[3-(cyclopenten-1-yl)-4-(1,1-dioxo-1,4-thiazinane-4-carbonyl)phenyl]cyclopropanecarboxamide], the Ki was 316 to 1000 nM.

On to `CN1CCN(C(=O)c2ccc(NC(=O)C3CC3)cc2C2=CCCC2)C(c2ccccc2)C1` (stereo not drawn) [Example 89, N-[3-(cyclopenten-1-yl)-4-(4-methyl-2-phenylpiperazine-1-carbonyl)phenyl]cyclopropanecarboxamide], for which the Ki lay in the range of 63.1 to 251 nM.

Consider `O=C(Nc1ccc(C(=O)N2CCS(=O)(=O)CC2)c(C2CCCC2)c1)C1CC1` [Example 90, N-[3-cyclopentyl-4-(1,1-dioxo-1,4-thiazinane-4-carbonyl)phenyl]cyclopropanecarboxamide], for which the Ki was more than 6310 nM.

On to `CN1CCN(C(=O)c2ccc(NC(=O)C3CC3)cc2C2CCCC2)C(c2ccccc2)C1` (stereo not drawn) [Example 91, N-[3-cyclopentyl-4-(4-methyl-2-phenylpiperazine-1-carbonyl)phenyl]cyclopropanecarboxamide], for which the Ki lay within 316 to 1000 nM.

For the compound `Cc1cc(C(=O)N2CCN(C)CC2c2ccccc2)c(N2CCCC2)cc1NC(=O)C1CC1` (stereo not drawn) [Example 92, N-[2-methyl-4-(4-methyl-2-phenylpiperazine-1-carbonyl)-5-pyrrolidin-1-ylphenyl]cyclopropanecarboxamide], the Ki was more than 6310 nM.

For the compound `Cc1cc(C(=O)N2CCS(=O)(=O)CC2)c(N2CCCC2)cc1NC(=O)C1CC1` [Example 93, N-[4-(1,1-dioxo-1,4-thiazinane-4-carbonyl)-2-methyl-5-pyrrolidin-1-ylphenyl]cyclopropanecarboxamide], the Ki was more than 6310 nM.

With `Cc1c(NC(=O)C2CC2)ccc(C(=O)N2CCS(=O)(=O)CC2)c1N1CCCC1` [Example 94, N-[4-(1,1-dioxo-1,4-thiazinane-4-carbonyl)-2-methyl-3-pyrrolidin-1-ylphenyl]cyclopropanecarboxamide], the Ki was 316 to 1000 nM.

Take `CN1CCN(C(=O)c2cc(Cl)c(NC(=O)C3CC3)cc2N2CCCC2)C(c2ccccc2)C1` (stereo not drawn) [Example 95, N-[2-chloro-4-(4-methyl-2-phenylpiperazine-1-carbonyl)-5-pyrrolidin-1-ylphenyl]cyclopropanecarboxamide]: the Ki is more than 6310 nM.

In the case of `O=C(Nc1cc(N2CCCC2)c(C(=O)N2CCS(=O)(=O)CC2)cc1Cl)C1CC1` [Example 96, N-[2-chloro-4-(1,1-dioxo-1,4-thiazinane-4-carbonyl)-5-pyrrolidin-1-ylphenyl]cyclopropanecarboxamide], the Ki was 1260 to 6310 nM.

For `CN1CCN(C(=O)c2ccc(NC(=O)C3CC3)c(Cl)c2N2CCCC2)C(c2ccccc2)C1` (stereo not drawn) [Example 97, N-[2-chloro-4-(4-methyl-2-phenylpiperazine-1-carbonyl)-3-pyrrolidin-1-ylphenyl]cyclopropanecarboxide], the Ki was in the range of 316 to 1000 nM.

Consider `O=C(Nc1ccc(C(=O)N2CCS(=O)(=O)CC2)c(N2CCCC2)c1Cl)C1CC1` [Example 98, N-[2-chloro-4-(1,1-dioxo-1,4-thiazinane-4-carbonyl)-3-pyrrolidin-1-ylphenyl]cyclopropanecarboxamide], for which the Ki was 316 to 1000 nM.

Turning to `O=C(Nc1ccc(-c2nnc(N3CCCC3)o2)c(N2CCCC2)c1)C1CC1` [Example 99, N-[3-pyrrolidin-1-yl-4-(5-pyrrolidin-1-yl-1,3,4-oxadiazol-2-yl)phenyl]cyclopropanecarboxamide], the Ki was more than 6310 nM.

Regarding `O=C(Nc1ccc(-c2nnc(N3CCC(F)(F)CC3)o2)c(N2CCCC2)c1)C1CC1` [Example 100, N-[4-[5-(4,4-difluoropiperidin-1-yl)-1,3,4-oxadiazol-2-yl]-3-pyrrolidin-1-ylphenyl]cyclopropanecarboxamide], the fpKi activity result is reported as “+ +”.

On to `CC(=O)Nc1ccc(-c2nccc(N3CCCC3)n2)c(N2CCCC2)c1` [Example 101, N-[3-pyrrolidin-1-yl-4-(4-pyrrolidin-1-ylpyrimidin-2-yl)phenyl]acetamide], for which the Ki is more than 6310 nM.
